# Source: the OPERA property sets (Mansouri et al. 2018)
# Settings: for log10 biotransformation half-life (days) / log10 BCF: fish
SMILES,melting point [°C],boiling point [°C],further results
c1cc2c3c(ccc4c3c1CCC4)CCC2,133,,log10 biotransformation half-life (days): 0.42
COC(=O)C(C)(C)O,,137,
CC1=CCC(C)C1 (stereo unspecified),,93.2,
OCCCCO,20.4,235,log10 vapour pressure (mmHg): -1.98; ready biodegradability: readily biodegradable
FC(Cl)C(Cl)(Cl)Cl (stereo unspecified),-95.3,116,
CC[C@@](C)(O)C(=O)O,74,,
O=C1CC=CCC1,,170,
CC(C)(C#N)C(C)(C)C#N,170,,
O=S(=O)(CCl)c1ccccc1,54,,
COc1cccc(CC(C)=O)c1,,259,
OCC(Br)(Br)Br,81,,
Clc1cc2ccccc2c2ccccc12,,,log10 BCF: 3.49; log10 biotransformation half-life (days): 1.8
CC(C)=C1C=C2CCC3C(C)(C(=O)O)CCCC3(C)C2CC1 (stereo unspecified),,,log10 BCF: 2.17
CC#CC(=O)OCC,,163,
CS(=O)(=O)c1ccccc1,86,,
CCC(C)SC(C)CC (stereo unspecified),,165,
CN(C)CCC(O)(c1ccccc1)c1ccccc1Cl (stereo unspecified),120,,
ClC(Cl)[Si](Cl)(Cl)Cl,,145,
CCOC(=O)CSc1nc(C(C)(C)C)nn1C(=O)N(C)C,53,,log10 vapour pressure (mmHg): -6.92
CCC1(C(C)C)C(=O)NC(=O)NC1=O,203,,
BrC(Br)c1ccccc1OCC1CO1 (stereo unspecified),,,ready biodegradability: not readily biodegradable
CC(C)(C)c1ccc2c(c1)C(=O)c1ccccc1C2=O,99,,ready biodegradability: not readily biodegradable
ClCc1ccccc1Cl,-17,217,ready biodegradability: not readily biodegradable

SMILES,melting point [°C],boiling point [°C],further results
CCCC(=O)C=Cc1ccc(O)c(O)c1,132,,
Clc1cccc(-c2cc(Cl)cc(Cl)c2)c1,,,log10 Henry constant (atm·m³/mol): -3.77
Nc1cccc(Cl)c1C(=O)O,159,,
C=C(C)[C@@H]1CC[C@@H](C)C[C@@H]1O,78,,
OCC(CO)(CBr)CBr,113,,ready biodegradability: not readily biodegradable; log10 BCF: 0.68; log10 biotransformation half-life (days): -1.4
ClCBr,-87.9,68,log10 vapour pressure (mmHg): 2.15; ready biodegradability: not readily biodegradable; log10 BCF: 0.6; log10 biotransformation half-life (days): -0.74
COc1cccc(C(=O)NN)c1,94,,
FC1(F)C(F)(F)C(F)(F)C(F)(F)C(F)(F)C1(F)F,,50.6,log10 vapour pressure (mmHg): 2.23
Cc1ccc2ccccc2c1[N+](=O)[O-],81.5,,
CCCCCCCCCCCCOP(=O)(O)O,,,ready biodegradability: readily biodegradable
C=CC(C)Cl (stereo unspecified),,64.5,log10 vapour pressure (mmHg): 2.18
CC(C)(C)c1ccc(CSc2cnn(C(C)(C)C)c(=O)c2Cl)cc1,112,,log10 vapour pressure (mmHg): -5.93
CS(=O)(=O)c1ccc(C(=O)C2C(=O)CCCC2=O)c(Cl)c1,139,,log10 vapour pressure (mmHg): -7.43
CCCCCCCCCCS,-26,241,log10 vapour pressure (mmHg): -1.44
O=C1C=CC(=Nc2ccc(O)cc2)C=C1,160,,
CCOC(=O)C(C)C(=O)OCC,,201,
CN(C)CCN,,105,ready biodegradability: not readily biodegradable
CC(=O)c1cccc(C(F)(F)F)c1,,199,
CCC(=O)O[C@](Cc1ccccc1)(c1ccccc1)[C@H](C)CN(C)C,75.5,,
O=C(O)Cc1ccco1,68.5,,
CCOCCBr,,128,
CCCCCCCCCCCCCCCCCCCCCCCCCCCCCCCCCC,72.6,483,log10 biodegradation half-life (days): 2.58; ready biodegradability: readily biodegradable
CC(C)(Oc1ccc(Cl)cc1)C(=O)OCc1cccnc1,48.5,,

SMILES,melting point [°C],boiling point [°C],further results
Nc1ccc2[nH]ccc2c1,132,,
O=C(O)CCC(=O)c1ccc(-c2ccccc2)cc1,186,,
Cc1ccc([N+](=O)[O-])cc1C,30.5,251,log10 vapour pressure (mmHg): -2.44
O=C(Cl)c1ccc([N+](=O)[O-])cc1,75,,
FC(Cl)C(F)(F)Cl (stereo unspecified),-78,29.5,log10 vapour pressure (mmHg): 2.79
Cc1cccc(C(C)(C)C)c1,-41.4,189,
C=Cc1c(C)cc(C)cc1C,-37,209,
SC(c1ccccc1)(c1ccccc1)c1ccccc1,105,,
ClC(c1ccccc1)(c1ccccc1)c1ccccc1,114,310,ready biodegradability: not readily biodegradable; log10 BCF: 2.63; log10 biotransformation half-life (days): -0.15
COc1ccc2[nH]cc(CCNC(C)=O)c2c1,117,,
CCc1cc2cc(OC)c(OC)cc2c(Cc2ccccc2)n1,78.5,,
CC1=C(C)C(=O)OC1=O,96,223,
COCCCl,,92.5,
C=C(C)CC(C)C,-124,81.6,log10 vapour pressure (mmHg): 1.98
CC(Br)C(C)(C)Br (stereo unspecified),7,,
CCNC(N)=S,112,,
CC(=O)c1ccncc1,16,212,log10 Henry constant (atm·m³/mol): -7.2
ClC(Cl)(Cl)I,-7.8,142,
CC(=O)c1c(C)c[nH]c1C,138,,
C=C(C)C=CC(=C)C,-9,146,
COc1cc2c(cc1O)C(Cc1ccc(OC)c(OC)c1)N(C)CC2 (stereo unspecified),127,,
O=c1cc[nH]c(=O)[nH]1,338,,log10 vapour pressure (mmHg): -4.33
CCOP(=S)(OCC)Oc1ncn(-c2ccccc2)n1,,,log10 vapour pressure (mmHg): -5.54

SMILES,melting point [°C],boiling point [°C],further results
COc1cc(-c2coc3cc(O)c(OC)c(O)c3c2=O)cc(O)c1OC,185,,
CCCCCCCCC(N)=O,99.5,,
Clc1cc(-c2cc(Cl)c(Cl)c(Cl)c2)cc(Cl)c1Cl,,,log10 BCF: 5.97
NC(=O)c1ccccc1OCC(=O)O,221,,
NC(=O)C(Br)(Br)Br,122,,
Oc1cccc2cccnc12,75.5,267,log10 vapour pressure (mmHg): -2.78; ready biodegradability: not readily biodegradable
CCc1ccc(N)cc1,-4.8,218,log10 vapour pressure (mmHg): -0.844
Brc1ccc2[nH]ccc2c1,91,,
Cc1cccc(O)c1,11.8,202,log10 Henry constant (atm·m³/mol): -6.07; log10 vapour pressure (mmHg): -0.959; ready biodegradability: readily biodegradable
ClCC(Cl)C(Cl)(Cl)Cl (stereo unspecified),,180,
Cc1cc(O)ccc1Cl,67,235,log10 vapour pressure (mmHg): -1.3; ready biodegradability: readily biodegradable; log10 BCF: 0.93; log10 biotransformation half-life (days): -1.28
CC(C)OC(=O)CCl,,150,log10 vapour pressure (mmHg): 0.613
CC(C)(C)C(O)/C(=C\c1ccc(Cl)cc1Cl)n1cncn1 (stereo unspecified),147,,log10 vapour pressure (mmHg): -4.43
CCN(CC)c1cccc(C)c1,,232,
FC(F)CBr,-75,57.3,
COc1ccc(CCc2cc(OC)c3ccccc3n2)cc1OC,116,,
NNC(=O)CCCCC(=O)NN,,,ready biodegradability: not readily biodegradable
CC(C)(C)CC(C)(C)N,,140,
CC1C=CCCC1 (stereo unspecified),,103,log10 vapour pressure (mmHg): 1.54
COC(C)OC,-113,64.5,log10 vapour pressure (mmHg): 2.23
CCCC(C)(CC)CC,,141,
Cc1ccc2c(c1[N+](=O)[O-])C(=O)c1ccccc1C2=O,270,,
N#Cc1cc[n+]([O-])cc1,224,,

SMILES,melting point [°C],boiling point [°C],further results
SC1CCCCC1,,159,log10 vapour pressure (mmHg): 0.598
COc1cc(OC)n2nc(S(=O)(=O)Nc3c(Cl)ccc(C)c3Cl)nc2n1,211,,
CCCCCC(C)O (stereo unspecified),,159,log10 vapour pressure (mmHg): 0.0899
ClC=C(Cl)C(Cl)Cl,,162,
Nc1ccc(N)c2c1C(=O)c1ccccc1C2=O,268,,log10 vapour pressure (mmHg): -9.7
COc1cc(C=CC=O)ccc1O,84,,
CCOC(=O)C1=C(C)NC(C)=C(C(=O)OCC)C1,180,,
NCc1ccccc1Sc1ccccc1CO,97,,
O=C(O)c1ccc(C(=O)O)s1,359,,
O=[N+]([O-])c1cccc(CBr)c1,59.3,,
CCCCCCCCCCCCCCCCCCCCCCCCCCCCCCCCCCCCCCCC,82,,ready biodegradability: readily biodegradable
N#CCCOc1cccc2ccccc12,64,,
Oc1ccc2[nH]ccc2c1,108,,
ON=C1CCCC1,57.8,196,
OCCc1ccc2ccccc2n1,103,,
C[C@@H]1NC(=O)N[C@@H]1CCCCCC(=O)O,157,,
ClC(I)I,-4,,
OC(O)C(Cl)(Cl)Cl,57,98,log10 vapour pressure (mmHg): 1.18
Cc1nccc2ccccc12,10,248,
Oc1cc(Cl)c(Br)cc1Cl,,,ready biodegradability: not readily biodegradable
O=c1c(O)c(-c2ccc(O)c(O)c2)oc2cc(O)cc(O)c12,316,,
N#CC(Br)(Br)C(N)=O,124,,log10 vapour pressure (mmHg): -3.05; ready biodegradability: not readily biodegradable
CC1CCOS(=O)O1 (stereo unspecified),5,185,

SMILES,melting point [°C],boiling point [°C],further results
Cc1cccc(CN)c1,,204,
CCCCCCCCCCCCCCCCCCCC(=O)O,75.4,328,log10 vapour pressure (mmHg): -8.74
CCC(C)(C)c1ccc(O)cc1,95,262,log10 vapour pressure (mmHg): -2.7
COCBr,,87,
c1ccc2c(c1)OCCOCCOCCOc1ccccc1OCCOCCOCCO2,104,,
Clc1ccc(Oc2cc(Cl)ccc2Cl)cc1,,,log10 vapour pressure (mmHg): -3.76
Ic1cc(I)c(I)cc1I,254,,
COBOC,-131,25.9,
CCC1(c2ccccc2)C(=O)NCNC1=O,282,,
Cc1cc(C)c(C)c(C)n1,,203,
CC[C@H](CC[C@@H](C)[C@H]1CC[C@H]2C3=CC=C4C[C@@H](O)CC[C@]4(C)[C@H]3CC[C@]12C)C(C)C,144,,
CCCCCC#CC(=O)O,4,,
BrCC(Br)(Br)CBr,10.5,,
CC1SC(C)SC(C)S1 (stereo unspecified),101,246,
Cc1cc(=O)oc2cc(O)c(O)cc12,275,,
O=C(O)Cc1cn(-c2ccccc2)nc1-c1ccc(Cl)cc1,150,,
O=[N+]([O-])c1ccc(N=Nc2ccc(O)cc2)cc1,,,log10 vapour pressure (mmHg): -9.52
CC(=O)OC1CCCCC1C (stereo unspecified),,,ready biodegradability: readily biodegradable
